Where “and” joins values, the source holds several entries; their conditions need not be identical. Equal values may be shown once. Read-outs that look alike come from different tables or passages of the source.
Tests used:
[1] = test system: human platelet aggregation; experiment: Human platelet aggregation induced by collagen after oral administration to humans; assay type: in vivo; details: collagen 33.3 μg/m, one value per human; for y (collagen-induced aggregation curve): decrease vs control = inhibition; for delay (collagen-induced aggregation curve) / x (collagen-induced aggregation curve): increase vs control = inhibition
Experimental: The significance of the parameters employed in Table IV (x, y and delay) is indicated; and
(§1) In the in vivo tests on humans, the two selected compounds were administered per os during six consecutive days at equimolar doses: 200 mg three times a day of 2-acetoxy-4-trifluoromethylbenzoic acid and 248 mg three times a day of 2-phosphonoxy-4-trifluoromethylbenzoic acid.
(§2) Blood was collected on the first, fourth and seventh day of the test and the platelet aggregation induced by ADP, epinephrine and collagen was determined according to the above-mentioned Born method.
(§3) EFFECT OF 2-ACETOXY-4-TRIFLUOROMETHYLBENZOIC ACID
(§4) AND 2-PHOSPHONOXY-4-TRIFLUOROMETHYLBENZOIC
ACID ON PLATELET AGGREGATION INDUCED BY
COLLAGEN AFTER ORAL ADMINISTRATION TO HUMANS*.
*An increase of delay time and x and a decrease of y with respect to
control indicate an inhibitory effect on platelet aggregation (see FIG.

[2] = test system: blood coagulation factors and fibrinolysis; assay type: in vivo, human; details: oral; for Euglobin lysis time: Von Kaulas's test / Activated kaolin test / Activated partial thromboplastin test: APTI / Howell's test / Plasma prothrombine test: Quick test / Serum prothrombin time / Bleeding time, Duke test / Clotting time / Thromboelastogram K / Thromboelastogram r / Hematocrit / Platelet count: mean ± s.e.m.; for Euglobin lysis time: Von Kaulas's test: decrease vs control = drug effect; for Activated kaolin test / Activated partial thromboplastin test: APTI / Howell's test / Plasma prothrombine test: Quick test / Serum prothrombin time: decrease vs control = inhibitory effect; for Bleeding time, Duke test / Clotting time / Thromboelastogram K / Thromboelastogram r: increase vs control = inhibitory effect; for anticoagulant action (in words) / blood fibrinolytic activity (in words): humans; for Clot retraction / Degradation products of fibrinogen: DPF / Parrot's test / Tourniquet test: days not separated
Experimental: The values r and k (in parameter 15 of Table V) correspond to blood (b). Their significance appears from the Figure.
as §1, §2
The potential anticoagulant and fibrinolytic activity of the claimed compounds has therefore likewise been investigated. For this purpose, with the same blood samples used for the determination of in vivo antiaggregating action on humans, the following parameters were examined: clotting time, bleeding time (Duke test), tourniquet test, Parrot's test, plasma prothrombine test (Quick test), activated partial thromboplastin test (APTT), activated Kaolin test, Howell's test, serum prothrombin time, euglobulin lysis time, Von Kaula's test, degradation products of fibrinogen (DPF), platelet count, clot retraction, hematocrit and thromboelastogram.
EFFECT OF 2-ACETOXY-4-TRIFLUOROMETHYLBENZOIC ACID AND 2-PHOSPHONOXY-4-TRIF
ZOIC ACID ON BLOOD COAGULATION FACTORS AND FIBRINOLYSIS*.
treated with 2-acetoxy-4-trifluoromethylbenzoic acid and on 6 humans
treated with 2-phos phonoxy-4-trifluoromethylbenzoic acid. An increase of
the mean values (±s.e.m.) of parameters 1 and 2 or a decrease of
parameters 5,6,7,8,9,10 and 11 with respect to control, mean an inhibitor
effec of drugs on the blood coagulation and fibrinolysis.
**An increase of r and k values with respect to control, indicates an
inhibitory effect of the drugs on blood coagulation and also on platelet
aggregation. These figures are indicated in FIG. 2 which corresponds to a
normal thromboelastogram.

[3] = test system: human platelet aggregation; experiment: Human platelet aggregation induced by ADP and epinephrine after oral administration to humans; assay type: in vivo; details: Tables III and IV
Experimental: as §1, §2, §3, §4
ACID ON PLATELET AGGREGATION INDUCED BY ADP AND
EPINEPHRINE AFTER ORAL ADMINISTRATION TO HUMANS*
*The figures express the concentration (μM) that produces irreversible

[4] = test system: rat platelet aggregation; experiment: In vitro inhibition of rat platelet aggregation (Born and Cross method); assay type: cell-based; details: for inhibition at 830 µM / inhibition at 2080 µM / inhibition at 4150 µM / inhibition at 8300 µM: Rattus norvegicus, Platelet, rat plasma; for inhibition at 830 µM: plasma concentration 0.83×10^-3 molar; for inhibition at 2080 µM: plasma concentration 2.08×10^-3 molar; for inhibition at 4150 µM: plasma concentration 4.15×10^-3 molar; for inhibition at 8300 µM: plasma concentration 8.30×10^-3 molar
Experimental: Platelet aggregation was measured according to the method of Born and Cross (8) by using rat and human plasma.

[5] = test system: human platelet aggregation; experiment: In vitro inhibition of human platelet aggregation (Born and Cross method); assay type: cell-based
Experimental: Platelet aggregation was measured according to the method of Born and Cross (8) by using rat and human plasma. The results are summarized below in Tables I and II.
Key : PC = Plasma Concentration: PAI = Platelet Aggregation
*The percent of inhibition was calculated using the method described by
McKenzie (Proc. Soc. Exp. Biol. Med. 137: 662, 1971).

[6] = ADP 4.1×10^-6 M, read-out: Platelet Aggregation Inhibition (PAI)
[7] = Collagen 33.3 μg/ml, read-out: Platelet Aggregation Inhibition (PAI)
[8] = read-out: Platelet Aggregation Inhibition (PAI), ADP 4.1×10^-6 M
[9] = read-out: Platelet Aggregation Inhibition (PAI), Collagen 33.3 μg/ml

SMILES: CC(=O)Oc1cc(C(F)(F)F)ccc1C(=O)O [2-acetoxy-4-trifluoromethylbenzoic acid]
- y (collagen-induced aggregation curve) ([1]; 4th day): 41 mm and 45 mm
- delay (collagen-induced aggregation curve) ([1]; 4th day): 60 xc and 72 xc
- x (collagen-induced aggregation curve) ([1]; 4th day): 22 mm and 24 mm and 17 mm and 25 mm
- delay (collagen-induced aggregation curve) ([1]; 7th day): 108 xc and 60 xc and 96 xc and 72 xc and 84 xc
- Euglobin lysis time: Von Kaulas's test ([2]; 4th day): 140.0 ± 12.3 min
- Activated kaolin test ([2]; 4th day): 0.797±0.03
- Activated partial thromboplastin test: APTI ([2]; 4th day): 0.720±0.03
- Howell's test ([2]; 4th day): 0.723±0.04
- Plasma prothrombine test: Quick test ([2]; 4th day): 0.938±0.02
- Serum prothrombin time ([2]; 4th day): 38.8 ± 2.7 s
- Bleeding time, Duke test ([2]; 4th day): 133.0 ± 19.3 s
- Clotting time ([2]; 4th day): 521.6 ± 29.7 s
- Thromboelastogram K ([2]; 4th day): 24.6±1.6 cm
- Thromboelastogram r ([2]; 4th day): 19.6±1.2 cm
- Euglobin lysis time: Von Kaulas's test ([2]; 7th day): 136.1 ± 11.5 min
- Activated kaolin test ([2]; 7th day): 0.890±0.02
- Activated partial thromboplastin test: APTI ([2]; 7th day): 0.890±0.03
- Howell's test ([2]; 7th day): 0.807±0.04
- Plasma prothrombine test: Quick test ([2]; 7th day): 0.933±0.02
- Serum prothrombin time ([2]; 7th day): 37.3 ± 3.9 s
- Bleeding time, Duke test ([2]; 7th day): 116.0 ± 13.8 s
- Clotting time ([2]; 7th day): 526.6 ± 25.6 s
- Thromboelastogram K ([2]; 7th day): 22.1±1.5 cm
- Thromboelastogram r ([2]; 7th day): 21.6±3.6 cm
- anticoagulant action (in words) [2]: exert an anticoagulant action
- blood fibrinolytic activity (in words) [2]: increase of the blood fibrinolytic activity
- Clot retraction [2]: NEGATIVE
- Degradation products of fibrinogen: DPF [2]: NEGATIVE
- Parrot's test [2]: POSITIVE IN TWO HUMANS
- Tourniquet test [2]: NEGATIVE
- in vivo action on human platelet aggregation (in words) [3]: far more effective compound
- inhibition at 830 µM [4, 6]: 26%
- inhibition at 2080 µM [4, 6]: 37.5%
- inhibition at 4150 µM [4, 6]: 51.9%
- inhibition at 8300 µM [4, 6]: 93.7%
- inhibition at 4150 µM [4, 7]: 34.5%
- inhibition at 8300 µM [4, 7]: 52.7%
- inhibition at 6250 µM ([5]; ADP 1.6×10^-6 M, plasma concentration 6.25×10^-3 molar, read-out: Platelet Aggregation Inhibition (PAI)): 22.5%
- inhibition at 8300 µM ([5]; ADP 1.6×10^-6 M, plasma concentration 8.30×10^-3 molar, read-out: Platelet Aggregation Inhibition (PAI)): 38.6%
- inhibition at 4100 µM ([5]; Collagen 33.3 mcg/ml, plasma concentration 4.10×10^-3 molar, read-out: Platelet Aggregation Inhibition (PAI)): 37.5%
- inhibition at 8300 µM ([5]; Collagen 33.3 mcg/ml, plasma concentration 8.30×10^-3 molar, read-out: Platelet Aggregation Inhibition (PAI)): 62%
- inhibition at 17000 µM ([5]; Epinephrine 1.4×10^-6 M, plasma concentration 17.0×10^-3 molar, read-out: Platelet Aggregation Inhibition (PAI)): 74%

SMILES: O=C(O)c1ccc(C(F)(F)F)cc1OP(=O)(O)O [2-phosphonoxy-4-trifluoromethylbenzoic acid]
- y (collagen-induced aggregation curve) ([1]; 4th day): 49 mm and 42 mm and 36 mm and 37 mm and 41 mm
- delay (collagen-induced aggregation curve) ([1]; 4th day): 36 xc and 24 xc and 48 xc
- x (collagen-induced aggregation curve) ([1]; 4th day): 14 mm and 16 mm and 17 mm and 22 mm and 18 mm
- delay (collagen-induced aggregation curve) ([1]; 7th day): 48 xc and 24 xc and 36 xc
- x (collagen-induced aggregation curve) ([1]; 7th day): 13 mm and 14 mm and 15 mm and 23 mm and 12 mm
- Hematocrit ([2]; 4th day): 42.0±1.0
- Platelet count ([2]; 4th day): 253.3±10.5 per mm^3 ×10^3
- Euglobin lysis time: Von Kaulas's test ([2]; 4th day): 145.1 ± 9.3 min
- Activated kaolin test ([2]; 4th day): 0.768±0.05
- Activated partial thromboplastin test: APTI ([2]; 4th day): 0.823±0.04
- Howell's test ([2]; 4th day): 0.873
- Plasma prothrombine test: Quick test ([2]; 4th day): 0.966±0.02
- Serum prothrombin time ([2]; 4th day): 34.8 ± 2.6 s
- Bleeding time, Duke test ([2]; 4th day): 155.0 ± 19.6 s
- Clotting time ([2]; 4th day): 527.5 ± 30.8 s
- Thromboelastogram K ([2]; 4th day): 25.3±2.7 cm
- Thromboelastogram r ([2]; 4th day): 17.8±2.0 cm
- Hematocrit ([2]; 7th day): 45.0±1.4
- Platelet count ([2]; 7th day): 223.3±12.8 per mm^3 ×10^3
- Euglobin lysis time: Von Kaulas's test ([2]; 7th day): 136.6 ± 9.0 min
- Activated kaolin test ([2]; 7th day): 0.960±0.04
- Activated partial thromboplastin test: APTI ([2]; 7th day): 0.960±0.01
- Howell's test ([2]; 7th day): 0.793±0.07
- Plasma prothrombine test: Quick test ([2]; 7th day): 0.986±0.02
- Serum prothrombin time ([2]; 7th day): 33.0 ± 1.5 s
- Bleeding time, Duke test ([2]; 7th day): 112.5 ± 10.8 s
- Clotting time ([2]; 7th day): 520.0 ± 28.6 s
- Thromboelastogram K ([2]; 7th day): 19.9±1.9 cm
- Thromboelastogram r ([2]; 7th day): 15.0±1.3 cm
- anticoagulant action (in words) [2]: exert an anticoagulant action
- blood fibrinolytic activity (in words) [2]: increase of the blood fibrinolytic activity
- Clot retraction [2]: NEGATIVE
- Degradation products of fibrinogen: DPF [2]: NEGATIVE
- Parrot's test [2]: POSITIVE IN FOUR HUMANS
- Tourniquet test [2]: NEGATIVE
- in vivo action on human platelet aggregation (in words) [3]: only a slight in vivo action on human platelet aggregation
- inhibition at 830 µM [4, 8]: 11.2%
- inhibition at 2080 µM [4, 8]: 23.1%
- inhibition at 4150 µM [4, 8]: 57.5%
- inhibition at 8300 µM [4, 8]: 69.8%
- inhibition at 4150 µM [4, 9]: 45.5%
- inhibition at 8300 µM [4, 9]: 94.5%
- inhibition at 6250 µM ([5]; read-out: Platelet Aggregation Inhibition (PAI), ADP 1.6×10^-6 M, plasma concentration 6.25×10^-3 molar): 56.6%
- inhibition at 8300 µM ([5]; read-out: Platelet Aggregation Inhibition (PAI), ADP 1.6×10^-6 M, plasma concentration 8.30×10^-3 molar): 60.8%
- inhibition at 4100 µM ([5]; read-out: Platelet Aggregation Inhibition (PAI), Collagen 33.3 mcg/ml, plasma concentration 4.10×10^-3 molar): 0%
- inhibition at 8300 µM ([5]; read-out: Platelet Aggregation Inhibition (PAI), Collagen 33.3 mcg/ml, plasma concentration 8.30×10^-3 molar): 12.6%
- inhibition at 17000 µM ([5]; read-out: Platelet Aggregation Inhibition (PAI), Epinephrine 1.4×10^-6 M, plasma concentration 17.0×10^-3 molar): 59%

SMILES: CNC[C@H](O)c1ccc(O)c(O)c1 [epinephrine, reference compound]
- influence on rat platelets ([4]; epinephrine as aggregating agent): no

Reference: patent publication US4096252A, “4-Trifluoromethylbenzoic acid derivatives as thromboembolic agents” (priority 1976, dated 1978)
